# According to patent publication US11807644B2 (PMV Pharmaceuticals, Inc., priority 2020, dated 2023):
# Target: T1, recombinant His-tag Y220C p53 DBD protein (Homo sapiens, UniProt P04637, Y220C)
# T1 construct: recombinant His-tag Y220C p53 DBD protein (amino acids #˜94-312)
# Assay: In vitro DNA binding activity assay (TR-FRET): binding of His-tag Y220C p53 DBD to biotin-labeled consensus DNA
# Type: biochemical
# Conditions: SC150 = concentration to increase DNA binding by […], His-tag Y220C p53 DBD, biotin-labeled consensus DNA
row,SMILES,Y220C SC150 (μM)
1,"C[C@@H]1CN(C)CC[C@@H]1Nc1cccc2c1cc(-c1noc(CNC(=O)c3ccc(C(C)(C)O)s3)n1)n2CC(F)(F)F (stereo in doubt) [Compound 515B, N-{[3-(4-{[(3R,4S)-1,3-dimethylpiperidin-4-yl]amino}-1-(2,2,2-trifluoroethyl)-1H-indol-2-yl)-1,2,4-oxadiazol-5-yl]methyl)-5-(2-hydroxypropan-2-yl)thiophene-2-carboxamide]",* (* = 0 μM ≤ SC150 < 0.1 μM)
2,"CC1CN(c2nc(C(=O)NCc3nc(-c4cc5c(N[C@@H]6CCN(C)C[C@@H]6F)cccc5n4CC(F)(F)F)no3)cs2)C[C@H](C)O1 (stereo in doubt) [Compound 517B, 2-[(2S,6S)-2,6-dimethylmorpholin-4-yl]-N-{[3-(4-{[(3S,4R)-3-fluoro-1-methylpiperidin-4-yl]amino}-1-(2,2,2-trifluoroethyl)-1H-indol-2-yl)-1,2,4-oxadiazol-5-yl]methyl}-1,3-thiazole-4-carboxamide]",* (* = 0 μM ≤ SC150 < 0.1 μM)
3,"O=S1(=O)CCC(Nc2cccc3c2cc(-c2cnn(Cc4cccnc4)c2)n3CC(F)(F)F)CC1 [Compound 16B, 4-[(2-{1-[(pyridin-3-yl)methyl]-1H-pyrazol-4-yl}-1-(2,2,2-trifluoroethyl)-1H-indol-4-yl)amino]-1λ^6-thiane-1,1-dione]",**** (**** = 1 μM ≤ SC150 < 10 μM)

# The next lines start with the values.
row,Y220C SC150 (μM),SMILES
1,**** (**** = 1 μM ≤ SC150 < 10 μM),"Cn1ccc(-c2cc3c(NC4CCS(=O)(=O)CC4)cccc3n2CC(F)(F)F)n1 [Compound 14B, 4-{[2-(1-methyl-1H-pyrazol-3-yl)-1-(2,2,2-trifluoroethyl)-1H-indol-4-yl]amino}-1λ^6-thiane-1,1-dione]"
2,**** (**** = 1 μM ≤ SC150 < 10 μM),"O=S1(=O)CCC(Nc2cccc3c2cc(-c2cnn(CCO)c2)n3CC(F)(F)F)CC1 [Compound 15B, 4-({2-[1-(2-hydroxyethyl)-1H-pyrazol-4-yl]-1-(2,2,2-trifluoroethyl)-1H-indol-4-yl}amino)-1λ^6-thiane-1,1-dione]"

# Same assay, conditions: concentration to increase DNA binding by […], incubated at either 27° C. or 29° C. for 60 min
row,SMILES,SC150 (μM)
1,"NC(=O)c1ccc(-c2cc3c(NC4CCS(=O)(=O)CC4)cccc3n2CC(F)(F)F)cc1 [Compound 1A, 4-{4-[(1,1-dioxo-1λ^6-thian-4-yl)amino]-1-(2,2,2-trifluoroethyl)-1H-indol-2-yl}benzamide]",++++ (++++ = 10 μM ≤ SC150 < 35 μM)
2,"NCc1ccc(-c2cc3c(NC4CCS(=O)(=O)CC4)cccc3n2CC(F)(F)F)cc1 [Compound 2A, 4-({2-[4-(aminomethyl)phenyl]-1-(2,2,2-trifluoroethyl)-1H-indol-4-yl}amino)-1λ^6-thiane-1,1-dione]",+++ (+++ = 5 μM ≤ SC150 < 10 μM)
3,"CS(=O)(=O)c1ccc(NCc2ccc(-c3cc4c(NC5CCS(=O)(=O)CC5)cccc4n3CC(F)(F)F)cc2)cc1 [Compound 8A, 4-{[2-(4-{[(4-methanesulfonylphenyl)amino]methyl}phenyl)-1-(2,2,2-trifluoroethyl)-1H-indol-4-yl]amino}-1λ^6-thiane-, 1-dione]",+ (+ = 0 μM ≤ SC150 < 2 μM)
4,"COc1cccc(-c2cc3c(NC4CCS(=O)(=O)CC4)cccc3n2CC(F)(F)F)c1 [Compound 13A, 4-{[2-(3-methoxyphenyl)-1-(2,2,2-trifluoroethyl)-1H-indol-4-yl]amino}-1λ^6-thiane-1,1-dione]",+++ (+++ = 5 μM ≤ SC150 < 10 μM)
5,"O=S1(=O)CCC(Nc2cccc3c2cc(-c2ccc(Cl)cc2)n3CC(F)(F)F)CC1 [Compound 14A, 4-{[2-(4-chlorophenyl)-1-(2,2,2-trifluoroethyl)-1H-indol-4-yl]amino}-1λ^6-thiane-1,1-dione]",++++ (++++ = 10 μM ≤ SC150 < 35 μM)
6,"CC(C)(C)c1ccc(C(=O)NCc2ccc(-c3cc4c(NC5CCS(=O)(=O)CC5)cccc4n3CC(F)(F)F)cc2)cc1 [Compound 15A, 4-tert-butyl-N-[(4-{4-[(1,1-dioxo-1λ^6-thian-4-yl)amino]-1-(2,2,2-trifluoroethyl)-1H-indol-2-yl}phenyl)methyl]benzamide]",+++ (+++ = 5 μM ≤ SC150 < 10 μM)
7,"N#Cc1ccc(C(=O)NCc2ccc(-c3cc4c(NC5CCS(=O)(=O)CC5)cccc4n3CC(F)(F)F)cc2)cc1 [Compound 16A, 4-cyano-N-[(4-{4-[(1,1-dioxo-1λ^6-thian-4-yl)amino]-1-(2,2,2-trifluoroethyl)-1H-indol-2-yl}phenyl)methyl]benzamide]",++ (++ = 2 μM ≤ SC150 < 5 μM)

# The remaining lines, values ahead:
row,SC150 (μM),SMILES
1,+++ (+++ = 5 μM ≤ SC150 < 10 μM),"CNCc1ccc(-c2cc3c(NC4CCS(=O)(=O)CC4)cccc3n2CC(F)(F)F)cc1 [Compound 3A, 4-[(2-{4-[(methylamino)methyl]phenyl}-1-(2,2,2-trifluoroethyl)-1H-indol-4-yl)amino]-1λ^6-thiane-1,1-dione]"
2,+++ (+++ = 5 μM ≤ SC150 < 10 μM),"CN(Cc1ccc(-c2cc3c(NC4CCS(=O)(=O)CC4)cccc3n2CC(F)(F)F)cc1)C(=O)OC(C)(C)C [Compound 4A, tert-butyl N-[(4-{4-[(1,1-dioxo-1λ^6-thian-4-yl)amino]-1-(2,2,2-trifluoroethyl)-1H-indol-2-yl}phenyl)methyl]-N-methylcarbamate]"
3,++++ (++++ = 10 μM ≤ SC150 < 35 μM),"CNC(=O)c1ccc(-c2cc3c(NC4CCS(=O)(=O)CC4)cccc3n2CC(F)(F)F)cc1 [Compound 5A, 4-{4-[(1,1-dioxo-1λ^6-thian-4-yl)amino]-1-(2,2,2-trifluoroethyl)-1H-indol-2-yl}-N-methylbenzamide]"
4,++ (++ = 2 μM ≤ SC150 < 5 μM),"CC(C)(C)OC(=O)NCc1ccc(-c2cc3c(NC4CCS(=O)(=O)CC4)cccc3n2CC(F)(F)F)cc1 [Compound 6A, tert-butyl N-[(4-{4-[(1,1-dioxo-1λ^6-thian-4-yl)amino]-1-(2,2,2-trifluoroethyl)-1H-indol-2-yl}phenyl)methyl]carbamate]"
5,++ (++ = 2 μM ≤ SC150 < 5 μM),"CC(C)(C#N)c1ccc(NCc2ccc(-c3cc4c(NC5CCS(=O)(=O)CC5)cccc4n3CC(F)(F)F)cc2)cn1 [Compound 7A, 2-(5-{[(4-{4-[(1,1-dioxo-1λ^6-thian-4-yl)amino]-1-(2,2,2-trifluoroethyl)-1H-indol-2-yl}phenyl)methyl]amino}pyridine-2-yl)-2-methylpropanenitrile]"
6,+++ (+++ = 5 μM ≤ SC150 < 10 μM),"O=S1(=O)CCC(Nc2cccc3c2cc(-c2ccc(CNc4ccccc4)cc2)n3CC(F)(F)F)CC1 [Compound 9A, 4-[(2-{4-[(phenylamino)methyl]phenyl}-1-(2,2,2-trifluoroethyl)-1H-indol-4-yl)amino]-1λ^6-thiane-1,1-dione]"
7,++++ (++++ = 10 μM ≤ SC150 < 35 μM),"N#Cc1cccc(-c2cc3c(NC4CCS(=O)(=O)CC4)cccc3n2CC(F)(F)F)c1 [Compound 10A, 3-{4-[(1,1-dioxo-1λ^6-thian-4-yl)amino]-1-(2,2,2-trifluoroethyl)-1H-indol-2-yl}benzonitrile]"
8,++++ (++++ = 10 μM ≤ SC150 < 35 μM),"Cc1ccc(-c2cc3c(NC4CCS(=O)(=O)CC4)cccc3n2CC(F)(F)F)c(F)c1 [Compound 11A, 4-{[2-(2-fluoro-4-methylphenyl)-1-(2,2,2-trifluoroethyl)-1H-indol-4-yl]amino}-1λ^6-thiane-1,1-dione]"
9,++++ (++++ = 10 μM ≤ SC150 < 35 μM),"O=S1(=O)CCC(Nc2cccc3c2cc(-c2cccc(Cl)c2)n3CC(F)(F)F)CC1 [Compound 12A, 4-{[2-(3-chlorophenyl)-1-(2,2,2-trifluoroethyl)-1H-indol-4-yl]amino}-1λ^6-thiane-1,1-dione]"
